According to ChEMBL document CHEMBL1151822, “Saldedines A and B, dibromo proaporphine alkaloids from a Madagascan tunicate” (J Nat Prod, 2009):

Assay: Toxicity in Artemia salina
Format: organism-based
Settings: in vivo, read-out: LD50 (the source's name)

SMILES	LC50
COc1cc2c3c(c1O)C1(C=C(Br)C(=O)C(Br)=C1)C[C@@H]3N(C)CC2 [SALDEDINE A]	4.4 µM
COc1cc2c3c(c1O)C1(C=C(Br)C(O)C(Br)=C1)C[C@@H]3N(C)CC2 (some centres not stated) [SALDEDINE B]	10.9 µM
